Experimental data reported in paper PMC3289669, “Capacity for Absorption of Water-Soluble Secondary Metabolites Greater in Birds than in Rodents” (PLoS ONE, 2012).
Several values for one entry are separate records, joined by “and”; a condition that tells them apart may be missing. Equal entries are not always repeated. Where two headings read alike, the source gives them in different places.

Experiments:
[1] = Mono-exponential fit of plasma probe concentrations after injection, yellow-vented bulbul; type: in vivo, Pycnonotus xanthopygos; conditions: dose-corrected plasma concentration, mean ± SEM
Procedure: (§1) Also, the rodents were transferred to metabolic cages with wire bottoms and a tray beneath from which to collect clean urine samples. At the beginning of a trial, animals were orally dosed at 1.0% body mass with an isosmotic solution containing L-[^14C]arabinose (∼0.02 µCi/g animal) and either [^3H]3OMD-glucose (∼0.1 µCi/g animal) or [^3H]lactulose (∼0.5 µCi/g animal). Oral dose solutions also contained NaCl (∼90 mM, ∼180 mOsm) and D-glucose (∼90 mM, ∼90 mOsm). NaCl was included in the solution to balance osmolality. Inclusion of Na^+ also provides an essential ion for Na^+-coupled D-glucose absorption, although it is not strictly necessary in this kind of whole-animal study because animals would still absorb nearly all glucose even if the diet is low in Na^+ because additional Na^+ is secreted into the intestinal lumen together with bicarbonate and diffuses from blood. […]
(§2) After administration of radiolabeled probes, birds and rodents were returned to their cages, where birds had ad libitum access to fruit and the rodents had ad libitum access to sucrose solution (10% w/w). […] Scintillation cocktail (Quicksafe A, Zinsser, UK) was added and samples were counted for disintegrations per minute (dpm) by liquid scintillation (Packard Tri-Carb 1600 TR scintillation counter, Packard INC., Meriden CT, USA), with corrections for quench and appearance of ^14C counts in the ^3H channel. […]

[2] = design: method as in PMID 2167807; conditions: humans, corrected for incomplete urine recovery; cited from earlier work
[3] = Recovery of injected probes in urine, both rodent species pooled; type: in vivo; conditions: Acomys cahirinus and Acomys russatus (pooled), intraperitoneal, data for both rodent species pooled, post-injection, read-out: Recovery of injected probe in urine, 95% C.I.
Procedure: (§3) As a measure of passive, paracellular absorption, we used standard methods from pharmacokinetics to measure the whole-organism fractional absorption of water-soluble compounds. As described in more detail, below, metabolically inert probe molecules were injected and also administered orally with a gavage needle to intact animals in separate experiments, and blood and/or urine samples were serially collected and analyzed for the probe molecules by liquid scintillation. Fractional absorption (f) was calculated as [post oral administration AUC]/[ post injection AUC] where AUC = dose-corrected area under the curve of plasma or urine probe amount vs. time. […] In mammals, the probes can be recovered in urine, and estimates of oral absorption take account of possible differential recovery by incorporating data on probes when injected. As shown in Results, recoveries of carbohydrate probes were uniformly high, which is in agreement with measures by others in rats and humans. In birds, plasma is sampled rather than urine, because urine is mixed in the avian cloaca with undigested residue from the intestine. […] In Discussion we elaborate on comparisons between these two procedures and reasons to choose them.
Also, the rodents were transferred to metabolic cages with wire bottoms and a tray beneath from which to collect clean urine samples. At the beginning of a trial, animals were orally dosed at 1.0% body mass with an isosmotic solution containing L-[^14C]arabinose (∼0.02 µCi/g animal) and either [^3H]3OMD-glucose (∼0.1 µCi/g animal) or [^3H]lactulose (∼0.5 µCi/g animal). […]
as §2

[4] = Fractional absorption of orally administered probes, both bird species pooled; type: in vivo, Onychognathus tristramii and Pycnonotus xanthopygos; conditions: for Fractional absorption (f): oral, both bird species pooled, mean ± SEM
Procedure: as §3, §1, §2

[5] = design: method as in PMID 17644690; conditions: rock doves; cited from earlier work
[6] = design: method as in earlier work; conditions: house sparrows; cited from earlier work
[7] = Fractional absorption of orally administered probes by Tristram's grackle (plasma AUC); type: in vivo, Onychognathus tristramii; conditions: oral; for Tmax: Onychognathus tristramii, plasma, read-out: Time of peak plasma level post oral administration; for Fractional absorption (f): AUCoral/AUCinj, mean ± SEM
Procedure: as §3
(§4) Also, the rodents were transferred to metabolic cages with wire bottoms and a tray beneath from which to collect clean urine samples. At the beginning of a trial, animals were orally dosed at 1.0% body mass with an isosmotic solution containing L-[^14C]arabinose (∼0.02 µCi/g animal) and either [^3H]3OMD-glucose (∼0.1 µCi/g animal) or [^3H]lactulose (∼0.5 µCi/g animal). Oral dose solutions also contained NaCl (∼90 mM, ∼180 mOsm) and D-glucose (∼90 mM, ∼90 mOsm). NaCl was included in the solution to balance osmolality. Inclusion of Na^+ also provides an essential ion for Na^+-coupled D-glucose absorption, although it is not strictly necessary in this kind of whole-animal study because animals would still absorb nearly all glucose even if the diet is low in Na^+ because additional Na^+ is secreted into the intestinal lumen together with bicarbonate and diffuses from blood. In a separate experimental trial, each animal was injected (0.6% body mass) with isosmotic NaCl solution containing L-[^14C]arabinose (∼0.02 µCi/g animal) and either [^3H]3OMD-glucose (∼0.1 µCi/g animal) or [^3H]lactulose (∼0.1 µCi/g animal). The injection site was the pectoralis muscle in birds and the peritoneal cavity in rodents. Syringes were weighed before and after dosing animals to determine actual dose administered.
(§5) After administration of radiolabeled probes, birds and rodents were returned to their cages, where birds had ad libitum access to fruit and the rodents had ad libitum access to sucrose solution (10% w/w). The purpose was to provide rodents water and some calories and also make them urinate more. Serial blood samples (∼25 µL) were drawn from the brachial vein of birds as described previously at t = 0 (background), 10, 20, 30, 45, 60, 80 or 90, 120, 150 min post-injection or post-oral administration. Plasma was separated using a standard hematocrit centrifuge, placed in scintillation vials and weighed. […] Scintillation cocktail (Quicksafe A, Zinsser, UK) was added and samples were counted for disintegrations per minute (dpm) by liquid scintillation (Packard Tri-Carb 1600 TR scintillation counter, Packard INC., Meriden CT, USA), with corrections for quench and appearance of ^14C counts in the ^3H channel. […]

[8] = design: method as in PMID 17644690; conditions: laboratory rats; cited from earlier work
[9] = Fractional absorption of orally administered probes by yellow-vented bulbul (plasma AUC); type: in vivo, Pycnonotus xanthopygos; conditions: oral; for Tmax: Pycnonotus xanthopygos, plasma, read-out: Time of peak plasma level post oral administration (converted); for Fractional absorption (f): AUCoral/AUCinj, mean ± SEM
Procedure: as §3, §4, §5

[10] = Mono-exponential fit of plasma probe concentrations after injection, Tristram's grackle; type: in vivo, Onychognathus tristramii; conditions: dose-corrected plasma concentration, mean ± SEM
Procedure: as §1, §2

[11] = Fractional absorption of orally administered probes by rodents (urine recovery); type: in vivo, Acomys cahirinus and Acomys russatus; conditions: for Fractional absorption (f): oral, both rodent species pooled, corrected for post-injection recovery, mean ± SEM
Procedure: as §3, §4, §5

[12] = Recovery of injected probes in urine of common spiny mice; type: in vivo; conditions: Acomys cahirinus (common spiny mouse), ip; A. cahirinus, intraperitoneal injection, cumulative urine recovery, mean ± SEM; read-out: Recovery of injected probe in urine
Procedure: (§6) As a measure of passive, paracellular absorption, we used standard methods from pharmacokinetics to measure the whole-organism fractional absorption of water-soluble compounds. As described in more detail, below, metabolically inert probe molecules were injected and also administered orally with a gavage needle to intact animals in separate experiments, and blood and/or urine samples were serially collected and analyzed for the probe molecules by liquid scintillation. Fractional absorption (f) was calculated as [post oral administration AUC]/[ post injection AUC] where AUC = dose-corrected area under the curve of plasma or urine probe amount vs. time. […] In mammals, the probes can be recovered in urine, and estimates of oral absorption take account of possible differential recovery by incorporating data on probes when injected. […]
as §2

[13] = Recovery of injected probes in urine of golden spiny mice; type: in vivo; conditions: Acomys russatus (golden spiny mouse), ip; A. russatus, intraperitoneal injection, cumulative urine recovery, mean ± SEM; read-out: Recovery of injected probe in urine
Procedure: as §6, §2

[14] = in vivo; cited from earlier work
[15] = design: method as in PMID 18025481; conditions: rats, cited from earlier work
[16] = system: whole-animal glucose absorption; design: method as in PMID 20145981; conditions: American robins; cited from earlier work
[17] = system: whole-animal glucose absorption; design: method as in PMID 20145981; conditions: laboratory rats, cited from earlier work
[18] = rock doves, nicotine in cationic water-soluble form, predicted from MW size-dependence of paracellular absorption
Excerpt: These factors of molecule size, charge, and associated nutrients help define the conditions under which water-soluble SMs may be best absorbed.

[19] = rock doves, area under the curve calculations; ref F. D. Cid, E. Caviedes-Vidal and W.H. Karasov, unpubl. observations; cited from earlier work

In the case of `OC1OC[C@H](O)[C@H](O)[C@H]1O` (mixture of isomers) [L-arabinose], the “A, mono-exponential fit Ct = A e^−αt” value [1] is given as 73.1±4.2 mg^−1 plasma, the “Fractional absorption (f)” value [2] is given as 0.26 and the dose excreted [3] is given as 81 to 93%. For the same compound, the “Fractional absorption (f)” value [4] was 1.03±0.17 and 1.03±0.07, the “Fractional absorption (f)” value [5] was 0.61 and the “Fractional absorption (f)” value [6] was 0.61. The Tmax [7] was no more than 10 min, the “Fractional absorption (f)” value [7] was 0.98±0.07 and the “Fractional absorption (f)” value [8] was 0.34. The Tmax [9] was no more than 10 min, the “Fractional absorption (f)” value [9] was 1.10±0.15 and the “A, mono-exponential fit Ct = A e^−αt” value [10] was 25.1±3.1 mg^−1 plasma. The “Fractional absorption (f)” value [11] was 0.37 and the “Fractional absorption (f)” value ([11]; listed as arabinose) was 0.37±0.06.
With `OC[C@H]1O[C@@H](O[C@@H]2[C@@H](CO)OC(O)(CO)[C@H]2O)[C@H](O)[C@@H](O)[C@H]1O` (mixture of isomers) [lactulose] the dose excreted [3] was 90 to 97%, the “Fractional absorption (f)” value [4] was 0.17±0.06 and the “Fractional absorption (f)” value [7] was 0.069±0.011. For the same compound, the “Fractional absorption (f)” value [9] was 0.30±0.10 and the “Fractional absorption (f)” value [11] was 0.085±0.021.
With `CO[C@@H]([C@H](O)[C@H](O)CO)[C@@H](O)C=O` [3-O-methyl-D-glucose] the dose excreted [12] was 100 ± 1%, the “A, mono-exponential fit Ct = A e^−αt” value [1] was 81.1±10.4 mg^−1 plasma and the dose excreted [3] was 96 to 101%. The “Ratio f L-arabinose/f 3OMD-glucose (proportion of 3OMD-glucose absorption that is passive)” value ([4]; birds, corrected for difference in MW) was 1, the “Fractional absorption (f)” value [4] was 0.88±0.08 and the Tmax [7] was 40 to 50 min. The “Fractional absorption (f)” value [7] was 0.95±0.08, the Tmax [9] was 30 min and the “Fractional absorption (f)” value [9] was 0.80±0.19. For the same compound, the dose excreted [13] was 93 ± 3%, the “A, mono-exponential fit Ct = A e^−αt” value [10] was 22.6±3.0 mg^−1 plasma and the “Fractional absorption (f)” value [11] was 0.95±0.01. For the same compound, the “Ratio f L-arabinose/f 3OMD-glucose (proportion of 3OMD-glucose absorption that is passive)” value ([11]; rodents, corrected for difference in MW) was 0.34.
For `O=C[C@@H](O)[C@H](O)[C@@H](O)[C@@H](O)CO` [L-glucose], the “Share of glucose absorption accounted for by L-glucose (passive)” value [14] is given as 50 to >90.
In the case of `C[C@H](O)[C@H](O)[C@@H](O)[C@@H](O)C=O` [L-rhamnose], the Fractional absorption ([15]; estimate from serially sampling blood) is listed as 0.24±0.03 and the Fractional absorption ([15]; measured by urine recovery) is listed as 0.22±0.03.
For `O=c1c(OC2OC(CO)C(O)C(O)C2O)c(-c2ccc(O)c(O)c2)oc2cc(O)cc(O)c12` (centres unmarked) [isoquercetrin], the “Effect on glucose absorption” value [16] is listed as “not in robins” and the “Effect on glucose absorption” value [17] is listed as “significantly decreased glucose absorption”.
In the case of `CN1CCC[C@H]1c1cccnc1` [nicotine], the “Predicted absorption of a dose” value [18] is given as “around 40%” and the “Absorption of a dose” value [19] is given as 44±3%.
For `O=C(CCc1ccc(O)cc1)c1c(O)cc(O)cc1O[C@@H]1O[C@H](CO)[C@@H](O)[C@H](O)[C@H]1O` [phloridzin], the “Effect on glucose absorption” value [16] is listed as “did not significantly decrease glucose absorption” and the “Inhibition of whole-animal glucose absorption efficiency” value ([17]; 10 mM) is listed as greater than 36%.
